Calls of active or inactive are those of the source. No cut-off for these calls is given here.
Columns and labels:
[1] = tested on: MIA PaCa-2; test: Induction of apoptosis in human MIA PaCa-2 cells assessed as viable cells at 1.0 uM measured after 48 hrs by Annexin V-Alexa Fluor 488/propidium iodide staining based flow cytometry (reference value: 82.23%); type: functional; conditions: read-out: Activity
[2] = tested on: HCT-116; test: Induction of apoptosis in human HCT-116 cells assessed as necrotic cells at 1.0 uM measured after 48 hrs by Annexin V-Alexa Fluor 488/propidium iodide staining based flow cytometry (reference value: 9.06%); type: functional
[3] = tested on: PANC-1; test: cells; conditions: Homo sapiens, PANC-1, 72 h
[4] = Cytotoxicity against HPDE cells measured after 72 hrs by MTT assay; type: toxicity, cell-based; conditions: human
[5] = AUC (0 to time of last detectable concentration) in CD-1 mouse plasma at 20 mg/kg, po; type: ADME, organism-based; parameters: dose 20 mg/kg, route po
[6] = target: D(3) dopamine receptor (Homo sapiens, UniProt P35462); test: Binding affinity to dopamine D3 receptor (unknown origin) assessed as inhibition constant
[7] = tested on: MIA PaCa-2; test: Induction of apoptosis in human MIA PaCa-2 cells assessed as viable cells at 10.0 uM measured after 48 hrs by Annexin V-Alexa Fluor 488/propidium iodide staining based flow cytometry (reference value: 82.23%); type: functional; conditions: read-out: Activity
[8] = Solubility of the compound; type: physicochemical
[9] = tested on: HCT-116; test: Induction of apoptosis in human HCT-116 cells assessed as necrotic cells at […] measured after 48 hrs by Annexin V-Alexa Fluor 488/propidium iodide staining based flow cytometry (reference value: 9.06%); type: functional; conditions: dose 2.5 µM
[10] = tested on: MIA PaCa-2; test: Upregulation of LC3-B expression in human MIA-PaCa-2 cells measured after 72 hrs; type: functional, cell-based; conditions: dose 1-5 µM
[11] = tested on: MIA PaCa-2; test: Synergistic cytotoxicity in human MIA PaCa-2 cells at upto 1 uM measured after 7 days in presence of oxaliplatin by crystal violet staining based analysis; type: functional, cell-based; conditions: time 7.0 day
[12] = target: D(1B) dopamine receptor (Homo sapiens, UniProt P21918); test: Binding affinity to dopamine D5 receptor (unknown origin) assessed as inhibition constant
[13] = Apparent oral clearance in CD-1 mouse plasma at 20 mg/kg, po; type: ADME, organism-based
[14] = Half life in CD-1 mouse plasma at 10 mg/kg, iv; type: ADME, organism-based
[15] = target: Sigma intracellular receptor 2 (Homo sapiens, UniProt Q5BJF2); test: Displacement of [3H][…]ditolylguanidine from human sigma 2 receptor transfected in human HEK293T cells assessed as inhibition constant by radioligand competition binding assay; type: cell-based
[16] = tested on: HCT-116; test: Induction of cell cycle arrest in human HCT-116 cells assessed as accumulation of cells in G0/G1 phase at 1 uM measured after 24 hrs by propidium iodide staining-based flow cytometric analysis (reference value: 43%); type: functional
[17] = tested on: HCT-116; test: Induction of cell cycle arrest in human HCT-116 cells assessed as accumulation of cells in G2/M phase at 10 uM measured after 24 hrs by propidium iodide staining-based flow cytometric analysis (reference value: 10%); type: functional
[18] = tested on: MIA PaCa-2; test: Induction of apoptosis in human MIA PaCa-2 cells assessed as necrotic cells at 1.0 uM measured after 48 hrs by Annexin V-Alexa Fluor 488/propidium iodide staining based flow cytometry (reference value: 7.03%); type: functional
[19] = tested on: HCT-116; test: Induction of apoptosis in human HCT-116 cells assessed as early apoptotic cells at […] measured after 48 hrs by Annexin V-Alexa Fluor 488/propidium iodide staining based flow cytometry (reference value: 2.77%); type: functional; conditions: dose 2.5 µM
[20] = target: Sigma non-opioid intracellular receptor 1 (Homo sapiens, UniProt Q99720); test: Displacement of [3H](+)-pentazocine from human sigma 1 receptor transfected in human HEK293T cells assessed as inhibition constant by radioligand competition binding assay; type: cell-based
[21] = tested on: HCT-116; test: Induction of apoptosis in human HCT-116 cells assessed as viable cells at 10.0 uM measured after 48 hrs by Annexin V-Alexa Fluor 488/propidium iodide staining based flow cytometry (reference value: 79.69%); type: functional; conditions: read-out: Activity
[22] = tested on: MIA PaCa-2; test: Induction of apoptosis in human MIA PaCa-2 cells assessed as late apoptotic cells at […] measured after 48 hrs by Annexin V-Alexa Fluor 488/propidium iodide staining based flow cytometry (reference value: 6.63%); type: functional; conditions: dose 2.5 µM
[23] = tested on: HCT-116; test: Induction of cell cycle arrest in human HCT-116 cells assessed as accumulation of cells in G2/M phase at 1 uM measured after 24 hrs by propidium iodide staining-based flow cytometric analysis (reference value: 10%); type: functional
[24] = tested on: HCT-116; test: Induction of cell cycle arrest in human HCT-116 cells assessed as accumulation of cells in G2/M phase at […] measured after 24 hrs by propidium iodide staining-based flow cytometric analysis (reference value: 10%); type: functional; conditions: dose 2.5 µM
[25] = Oral bioavailability in CD-1 mouse plasma at 20 mg/kg; type: ADME, organism-based; conditions: in vivo
[26] = tested on: MIA PaCa-2; test: Induction of cell cycle arrest in human MIA PaCa-2 cells assessed as accumulation of cells in G0/G1 phase at […] measured after 24 hrs by propidium iodide staining-based flow cytometric analysis (reference value: 53%); type: functional; conditions: dose 2.5 µM
[27] = tested on: MIA PaCa-2; test: Synergistic cytotoxicity in human MIA PaCa-2 cells at upto 1 uM measured after 7 days in presence of irinotecan by crystal violet staining based analysis; type: functional, cell-based; conditions: time 7.0 day
[28] = Toxicity in C57BL/6 mouse assessed as effect on body weight at 60 mg/kg, ip measured upto 28 days; type: organism-based; conditions: in vivo, 672 h, time < 28 day
[29] = AUC (0 to infinity) in CD-1 mouse plasma at 10 mg/kg, iv; type: ADME, organism-based; parameters: dose 10 mg/kg, route iv
[30] = AUC (0 to infinity) in CD-1 mouse plasma at 20 mg/kg, po; type: ADME, organism-based; parameters: dose 20 mg/kg, route po
[31] = tested on: HCT-116; test: Induction of cell cycle arrest in human HCT-116 cells assessed as accumulation of cells in G2/M phase at 5 uM measured after 24 hrs by propidium iodide staining-based flow cytometric analysis (reference value: 10%); type: functional
[32] = Cmax in CD-1 mouse plasma at 20 mg/kg, po; type: ADME, organism-based; parameters: dose 20 mg/kg, route po
[33] = tested on: HCT-116; test: Induction of apoptosis in human HCT-116 cells assessed as late apoptotic cells at 5.0 uM measured after 48 hrs by Annexin V-Alexa Fluor 488/propidium iodide staining based flow cytometry (reference value: 8.48%); type: functional
[34] = tested on: HCT-116; test: Induction of cell cycle arrest in human HCT-116 cells assessed as accumulation of cells in S phase at 5 uM measured after 24 hrs by propidium iodide staining-based flow cytometric analysis (reference value: 47%); type: functional
[35] = Apparent volume of distribution during terminal phase in CD-1 mouse plasma at 20 mg/kg, po; type: ADME, organism-based; conditions: read-out: Vz/F
[36] = tested on: MIA PaCa-2; test: Synergistic cytotoxicity in human MIA PaCa-2 cells at upto 1 uM measured after 7 days in presence of vemurafenib by crystal violet staining based analysis; type: functional, cell-based; conditions: time 7.0 day
[37] = tested on: HCT-116; test: Synergistic cytotoxicity against human HCT-116 cells at upto 1 uM measured after 6 days in presence of gold acetate by crystal violet staining based analysis; type: functional, cell-based; conditions: time 6.0 day
[38] = tested on: MIA PaCa-2; test: Additive cytotoxicity against human MIA PaCa-2 cells at upto 1 uM measured after 7 days in presence of ammonium tetrathiomolybdate by crystal violet staining based analysis; type: functional, cell-based; conditions: time 7.0 day
[39] = tested on: MIA PaCa-2; test: Induction of apoptosis in human MIA PaCa-2 cells assessed as necrotic cells at 5.0 uM measured after 48 hrs by Annexin V-Alexa Fluor 488/propidium iodide staining based flow cytometry (reference value: 7.03%); type: functional

Sequence of Sigma non-opioid intracellular receptor 1 (Q99720 whole entry): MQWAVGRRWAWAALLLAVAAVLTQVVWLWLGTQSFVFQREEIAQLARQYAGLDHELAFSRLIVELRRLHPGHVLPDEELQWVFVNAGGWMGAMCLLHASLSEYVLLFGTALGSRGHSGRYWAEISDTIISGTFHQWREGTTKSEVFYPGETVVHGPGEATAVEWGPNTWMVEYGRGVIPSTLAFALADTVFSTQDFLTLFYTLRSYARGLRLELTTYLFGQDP
Sequence of D(1B) dopamine receptor (P21918 whole entry): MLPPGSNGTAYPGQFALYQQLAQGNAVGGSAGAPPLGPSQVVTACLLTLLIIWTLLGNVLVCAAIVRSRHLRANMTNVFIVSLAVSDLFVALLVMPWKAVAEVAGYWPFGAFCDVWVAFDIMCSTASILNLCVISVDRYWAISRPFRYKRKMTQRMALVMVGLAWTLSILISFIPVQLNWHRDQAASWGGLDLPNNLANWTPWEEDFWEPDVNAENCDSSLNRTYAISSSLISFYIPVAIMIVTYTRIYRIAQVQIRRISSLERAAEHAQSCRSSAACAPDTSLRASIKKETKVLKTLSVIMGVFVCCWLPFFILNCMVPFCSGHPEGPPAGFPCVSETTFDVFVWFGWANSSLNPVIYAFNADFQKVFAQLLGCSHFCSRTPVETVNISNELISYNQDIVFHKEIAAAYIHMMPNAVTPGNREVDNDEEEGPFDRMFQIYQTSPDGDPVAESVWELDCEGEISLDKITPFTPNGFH
Sequence of D(3) dopamine receptor (P35462 whole entry): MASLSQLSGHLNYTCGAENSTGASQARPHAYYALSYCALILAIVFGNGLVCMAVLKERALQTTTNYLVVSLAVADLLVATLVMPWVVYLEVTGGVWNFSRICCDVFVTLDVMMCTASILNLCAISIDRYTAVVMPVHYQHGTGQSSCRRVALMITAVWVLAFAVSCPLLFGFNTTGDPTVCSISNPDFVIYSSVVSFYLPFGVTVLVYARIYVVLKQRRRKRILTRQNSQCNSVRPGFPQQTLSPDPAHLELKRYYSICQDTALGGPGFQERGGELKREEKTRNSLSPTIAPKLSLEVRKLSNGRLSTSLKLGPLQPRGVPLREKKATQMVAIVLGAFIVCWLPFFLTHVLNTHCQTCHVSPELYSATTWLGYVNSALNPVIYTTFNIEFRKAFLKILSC
Sequence of Sigma intracellular receptor 2 (Q5BJF2 whole entry): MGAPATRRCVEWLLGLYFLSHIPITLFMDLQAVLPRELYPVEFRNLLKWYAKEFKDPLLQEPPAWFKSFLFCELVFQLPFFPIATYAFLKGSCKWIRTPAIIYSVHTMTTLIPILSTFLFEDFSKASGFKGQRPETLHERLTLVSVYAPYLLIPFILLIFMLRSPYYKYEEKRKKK

CCN(CC)CCCC(C)Nc1cnc(C(=O)Nc2ccc(Cl)c3cccnc23)cn1 (centres undefined) gave a viability at 1 µM [1] of 54.6%, an Activity [2] of 9.72% and an IC50 [3] of 4 µM. It also gave an IC50 at 72 h [4] of 300 nM, an AUC [5] of 3110 ng·h/mL and a Ki [6] of 638 nM. The viability at 10 µM [7] was 6.27%, the solubility [8] was greater than 5000 µg/mL and the Activity [9] was 2.87%. For the same molecule, the Activity [10] was “Dose-Dependent Effect”, the Activity [11] was “inactive” and the Ki [12] was 1550 nM. The CL/F [13] was 98.3 mL/min/kg, the half-life [14] was 282 min and the Ki [15] was 47 nM. The Activity [16] was 41%, the Activity [17] was 22% and the Activity [18] was 3.16%. It also gave an Activity [19] of 8.77%, a Ki [20] of 530 nM and a viability at 10 µM [21] of 32.9%. The Activity [22] was 25.72%, the Activity [23] was 25% and the Activity [24] was 19%. The F [25] was 60%, the Activity [26] was 49% and the Activity [27] was “inactive”. For the same molecule, the Activity [28] was “Non-Toxic”, the AUC(0-inf) [29] was 2680 ng·h/mL and the AUC(0-inf) [30] was 3390 ng·h/mL. The Activity [31] was 22%, the Cmax [32] was 254 ng/mL and the Activity [33] was 18.39%. For the same molecule, the Activity [34] was 35%, the Vd/F [35] was 51.8 L/kg and the Activity [36] was “inactive”. The Activity [37] was “inactive”, the Activity [38] was “inactive” and the Activity [39] was 5.32%.

Reference: ChEMBL document CHEMBL5316327, “Design and Synthesis of Orally Active Quinolyl Pyrazinamides as Sigma 2 Receptor Ligands for the Treatment of Pancreatic Cancer” (J Med Chem, 2023)
